Assay results reported in ChEMBL document CHEMBL3991601, “The target landscape of clinical kinase drugs” (Science, 2017).
Active and inactive are the calls of the source. Cut-off read from the data, not from the text of the source, for most assays here: actives have a measured Kd and inactives only a lower limit.

Biological target: Tyrosine-protein kinase ABL1 (Homo sapiens, UniProt P00519)
Note: in the data inactive means no Kd found up to 30 µM.

| SMILES | Kd |
| --- | --- |
| COc1cc(OC)c(/C=C/S(=O)(=O)Cc2ccc(OC)c(NCC(=O)O)c2)c(OC)c1 [RIGOSERTIB] | > 30 µM (inactive) |
| CNC(=O)CN1CCC(Oc2cc3c(Nc4cccc(Cl)c4F)ncnc3cc2OC)CC1 [SAPITINIB] | > 30 µM (inactive) |
| C[C@@H](c1ccc2nccn2c1)n1nnc2ncc(-c3cnn(C)c3)nc21 [SAVOLITINIB] | > 30 µM (inactive) |

Biological target: T1, Activin receptor type-1 (Homo sapiens, UniProt Q04771)
T1 sequence (Q04771 whole entry): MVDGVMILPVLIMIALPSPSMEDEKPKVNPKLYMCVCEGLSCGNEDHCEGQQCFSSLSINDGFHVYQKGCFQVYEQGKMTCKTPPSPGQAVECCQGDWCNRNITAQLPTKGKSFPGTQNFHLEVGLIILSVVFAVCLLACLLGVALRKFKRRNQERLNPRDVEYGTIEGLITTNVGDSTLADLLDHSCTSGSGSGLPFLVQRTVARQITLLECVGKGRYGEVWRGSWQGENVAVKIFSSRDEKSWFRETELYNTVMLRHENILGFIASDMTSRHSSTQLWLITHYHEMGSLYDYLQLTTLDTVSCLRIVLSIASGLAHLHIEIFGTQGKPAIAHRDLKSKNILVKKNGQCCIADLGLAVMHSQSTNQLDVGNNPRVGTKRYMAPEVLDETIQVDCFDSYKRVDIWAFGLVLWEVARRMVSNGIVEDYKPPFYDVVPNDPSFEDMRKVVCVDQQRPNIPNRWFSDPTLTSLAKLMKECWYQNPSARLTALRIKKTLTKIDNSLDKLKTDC

| SMILES | Kd |
| --- | --- |
| COc1cc(OC)c(/C=C/S(=O)(=O)Cc2ccc(OC)c(NCC(=O)O)c2)c(OC)c1 [RIGOSERTIB] | > 30 µM (inactive) |
| CNC(=O)CN1CCC(Oc2cc3c(Nc4cccc(Cl)c4F)ncnc3cc2OC)CC1 [SAPITINIB] | > 30 µM (inactive) |
| C[C@@H](c1ccc2nccn2c1)n1nnc2ncc(-c3cnn(C)c3)nc21 [SAVOLITINIB] | > 30 µM (inactive) |

Biological target: Serine/threonine-protein kinase PAK 4 (Homo sapiens, UniProt O96013)
Sequence (O96013 whole entry): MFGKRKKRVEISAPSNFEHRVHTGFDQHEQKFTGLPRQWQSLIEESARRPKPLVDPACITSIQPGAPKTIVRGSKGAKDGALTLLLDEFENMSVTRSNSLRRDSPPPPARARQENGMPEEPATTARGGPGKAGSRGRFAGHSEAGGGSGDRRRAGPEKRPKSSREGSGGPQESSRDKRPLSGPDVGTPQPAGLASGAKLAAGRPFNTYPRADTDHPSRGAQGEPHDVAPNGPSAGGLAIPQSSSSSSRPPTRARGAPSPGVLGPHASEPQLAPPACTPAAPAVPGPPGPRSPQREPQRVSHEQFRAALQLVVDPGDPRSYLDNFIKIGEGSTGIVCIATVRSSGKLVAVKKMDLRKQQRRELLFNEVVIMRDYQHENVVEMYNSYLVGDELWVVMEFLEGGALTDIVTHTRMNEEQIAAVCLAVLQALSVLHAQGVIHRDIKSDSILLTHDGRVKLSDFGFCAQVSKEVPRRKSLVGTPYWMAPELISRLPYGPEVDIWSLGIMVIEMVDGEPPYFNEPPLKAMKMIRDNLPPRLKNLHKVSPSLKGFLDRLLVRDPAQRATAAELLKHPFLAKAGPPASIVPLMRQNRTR

| SMILES | Kd |
| --- | --- |
| COc1cc(OC)c(/C=C/S(=O)(=O)Cc2ccc(OC)c(NCC(=O)O)c2)c(OC)c1 [RIGOSERTIB] | > 30 µM (inactive) |
| CNC(=O)CN1CCC(Oc2cc3c(Nc4cccc(Cl)c4F)ncnc3cc2OC)CC1 [SAPITINIB] | > 30 µM (inactive) |
| C[C@@H](c1ccc2nccn2c1)n1nnc2ncc(-c3cnn(C)c3)nc21 [SAVOLITINIB] | > 30 µM (inactive) |

Biological target: T2, Interleukin-1 receptor-associated kinase 4 (Homo sapiens, UniProt Q9NWZ3)
T2 sequence (Q9NWZ3 whole entry): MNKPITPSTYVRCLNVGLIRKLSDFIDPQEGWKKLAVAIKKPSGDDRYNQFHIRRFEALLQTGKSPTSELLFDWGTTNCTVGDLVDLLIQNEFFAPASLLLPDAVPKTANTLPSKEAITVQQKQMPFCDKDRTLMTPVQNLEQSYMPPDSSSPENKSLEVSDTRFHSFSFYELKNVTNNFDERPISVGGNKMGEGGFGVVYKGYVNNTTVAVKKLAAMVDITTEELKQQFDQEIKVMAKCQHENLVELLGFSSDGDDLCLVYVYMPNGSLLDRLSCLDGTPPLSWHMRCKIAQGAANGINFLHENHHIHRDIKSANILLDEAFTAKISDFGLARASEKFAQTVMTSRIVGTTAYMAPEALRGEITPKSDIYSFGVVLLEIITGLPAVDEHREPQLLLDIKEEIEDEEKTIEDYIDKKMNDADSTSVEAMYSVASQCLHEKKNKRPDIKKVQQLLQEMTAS

| SMILES | Kd |
| --- | --- |
| COc1cc(OC)c(/C=C/S(=O)(=O)Cc2ccc(OC)c(NCC(=O)O)c2)c(OC)c1 [RIGOSERTIB] | > 30 µM (inactive) |
| CNC(=O)CN1CCC(Oc2cc3c(Nc4cccc(Cl)c4F)ncnc3cc2OC)CC1 [SAPITINIB] | > 30 µM (inactive) |
| C[C@@H](c1ccc2nccn2c1)n1nnc2ncc(-c3cnn(C)c3)nc21 [SAVOLITINIB] | > 30 µM (inactive) |

Biological target: T3, cGMP-dependent protein kinase 1 (Homo sapiens, UniProt Q13976)
T3 sequence (Q13976 whole entry): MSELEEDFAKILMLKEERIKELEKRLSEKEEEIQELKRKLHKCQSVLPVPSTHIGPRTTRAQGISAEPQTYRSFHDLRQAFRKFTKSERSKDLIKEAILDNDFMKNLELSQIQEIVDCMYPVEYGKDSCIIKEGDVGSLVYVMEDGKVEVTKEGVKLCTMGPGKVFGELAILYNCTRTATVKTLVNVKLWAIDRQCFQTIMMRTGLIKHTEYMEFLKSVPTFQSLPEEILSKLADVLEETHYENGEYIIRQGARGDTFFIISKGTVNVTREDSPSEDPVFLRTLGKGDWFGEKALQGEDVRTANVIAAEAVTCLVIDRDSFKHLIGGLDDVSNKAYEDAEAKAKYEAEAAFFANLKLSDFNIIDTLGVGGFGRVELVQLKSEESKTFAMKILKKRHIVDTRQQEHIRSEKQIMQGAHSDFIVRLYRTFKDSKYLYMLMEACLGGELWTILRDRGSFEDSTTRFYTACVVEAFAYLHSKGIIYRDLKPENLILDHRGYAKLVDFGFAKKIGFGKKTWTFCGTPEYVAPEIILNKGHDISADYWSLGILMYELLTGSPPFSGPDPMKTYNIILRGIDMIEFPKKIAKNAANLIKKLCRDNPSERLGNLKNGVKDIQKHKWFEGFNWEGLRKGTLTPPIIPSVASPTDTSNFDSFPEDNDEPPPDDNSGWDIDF

| SMILES | Kd |
| --- | --- |
| COc1cc(OC)c(/C=C/S(=O)(=O)Cc2ccc(OC)c(NCC(=O)O)c2)c(OC)c1 [RIGOSERTIB] | > 30 µM (inactive) |
| CNC(=O)CN1CCC(Oc2cc3c(Nc4cccc(Cl)c4F)ncnc3cc2OC)CC1 [SAPITINIB] | > 30 µM (inactive) |
| C[C@@H](c1ccc2nccn2c1)n1nnc2ncc(-c3cnn(C)c3)nc21 [SAVOLITINIB] | > 30 µM (inactive) |

Biological target: BMP-2-inducible protein kinase (Homo sapiens, UniProt Q9NSY1)
Sequence (Q9NSY1 whole entry): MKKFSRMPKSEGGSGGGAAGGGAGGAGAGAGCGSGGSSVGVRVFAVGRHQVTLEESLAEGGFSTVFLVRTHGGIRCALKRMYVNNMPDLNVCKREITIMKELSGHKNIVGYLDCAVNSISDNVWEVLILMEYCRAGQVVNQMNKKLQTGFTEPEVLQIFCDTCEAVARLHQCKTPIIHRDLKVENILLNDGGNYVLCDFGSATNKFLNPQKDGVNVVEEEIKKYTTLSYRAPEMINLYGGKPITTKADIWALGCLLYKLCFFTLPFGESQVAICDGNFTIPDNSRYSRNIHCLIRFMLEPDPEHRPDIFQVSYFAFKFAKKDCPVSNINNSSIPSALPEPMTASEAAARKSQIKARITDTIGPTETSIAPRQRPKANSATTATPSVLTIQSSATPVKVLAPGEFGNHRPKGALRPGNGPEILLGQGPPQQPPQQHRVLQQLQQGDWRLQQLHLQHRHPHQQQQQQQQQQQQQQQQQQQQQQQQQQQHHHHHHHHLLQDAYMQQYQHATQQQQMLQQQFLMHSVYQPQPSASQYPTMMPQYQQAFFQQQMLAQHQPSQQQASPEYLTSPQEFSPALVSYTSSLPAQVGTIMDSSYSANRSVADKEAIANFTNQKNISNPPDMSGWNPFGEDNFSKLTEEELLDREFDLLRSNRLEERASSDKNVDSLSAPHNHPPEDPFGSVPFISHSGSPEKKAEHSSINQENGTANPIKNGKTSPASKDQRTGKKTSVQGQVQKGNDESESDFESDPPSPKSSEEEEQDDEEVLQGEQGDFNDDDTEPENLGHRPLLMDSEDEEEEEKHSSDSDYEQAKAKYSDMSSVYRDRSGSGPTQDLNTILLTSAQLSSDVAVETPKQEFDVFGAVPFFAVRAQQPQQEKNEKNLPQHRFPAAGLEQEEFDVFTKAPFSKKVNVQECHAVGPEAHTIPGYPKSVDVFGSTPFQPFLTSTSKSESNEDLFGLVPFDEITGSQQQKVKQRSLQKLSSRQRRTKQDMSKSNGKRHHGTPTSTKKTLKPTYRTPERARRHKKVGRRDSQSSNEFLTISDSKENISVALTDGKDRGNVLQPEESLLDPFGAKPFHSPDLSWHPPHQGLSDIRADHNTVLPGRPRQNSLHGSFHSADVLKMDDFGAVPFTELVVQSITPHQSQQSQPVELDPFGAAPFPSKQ

| SMILES | Kd |
| --- | --- |
| COc1cc(OC)c(/C=C/S(=O)(=O)Cc2ccc(OC)c(NCC(=O)O)c2)c(OC)c1 [RIGOSERTIB] | > 30 µM (inactive) |
| CNC(=O)CN1CCC(Oc2cc3c(Nc4cccc(Cl)c4F)ncnc3cc2OC)CC1 [SAPITINIB] | > 30 µM (inactive) |
| C[C@@H](c1ccc2nccn2c1)n1nnc2ncc(-c3cnn(C)c3)nc21 [SAVOLITINIB] | > 30 µM (inactive) |

Biological target: Ephrin type-A receptor 4 (Homo sapiens, UniProt P54764)
Sequence (P54764 whole entry): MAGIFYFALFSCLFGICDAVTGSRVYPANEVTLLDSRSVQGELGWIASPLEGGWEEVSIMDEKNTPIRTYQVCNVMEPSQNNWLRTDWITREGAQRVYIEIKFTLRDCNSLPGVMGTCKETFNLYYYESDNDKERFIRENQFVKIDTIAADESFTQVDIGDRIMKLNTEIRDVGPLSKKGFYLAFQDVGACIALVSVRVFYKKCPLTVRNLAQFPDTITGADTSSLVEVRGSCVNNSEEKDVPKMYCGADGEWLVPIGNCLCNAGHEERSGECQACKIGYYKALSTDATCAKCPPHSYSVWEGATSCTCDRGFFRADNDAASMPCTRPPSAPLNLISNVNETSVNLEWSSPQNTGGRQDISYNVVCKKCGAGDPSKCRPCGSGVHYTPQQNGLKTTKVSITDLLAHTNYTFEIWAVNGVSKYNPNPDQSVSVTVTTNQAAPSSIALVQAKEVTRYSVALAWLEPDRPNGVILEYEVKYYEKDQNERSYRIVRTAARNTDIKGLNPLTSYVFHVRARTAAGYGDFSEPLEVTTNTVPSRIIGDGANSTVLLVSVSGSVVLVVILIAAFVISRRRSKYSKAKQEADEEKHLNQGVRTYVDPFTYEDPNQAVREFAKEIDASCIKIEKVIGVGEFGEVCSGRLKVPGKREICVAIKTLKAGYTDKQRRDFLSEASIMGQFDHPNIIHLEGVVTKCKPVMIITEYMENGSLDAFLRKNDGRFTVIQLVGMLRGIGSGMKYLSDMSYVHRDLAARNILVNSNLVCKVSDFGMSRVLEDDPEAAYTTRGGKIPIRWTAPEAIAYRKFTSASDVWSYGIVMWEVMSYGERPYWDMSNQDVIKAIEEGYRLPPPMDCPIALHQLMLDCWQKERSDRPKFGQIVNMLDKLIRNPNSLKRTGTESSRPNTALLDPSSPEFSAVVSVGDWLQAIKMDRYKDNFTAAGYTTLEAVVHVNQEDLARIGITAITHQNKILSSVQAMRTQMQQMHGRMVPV

| SMILES | Kd |
| --- | --- |
| COc1cc(OC)c(/C=C/S(=O)(=O)Cc2ccc(OC)c(NCC(=O)O)c2)c(OC)c1 [RIGOSERTIB] | > 30 µM (inactive) |
| CNC(=O)CN1CCC(Oc2cc3c(Nc4cccc(Cl)c4F)ncnc3cc2OC)CC1 [SAPITINIB] | 7.4 µM (active) |
| C[C@@H](c1ccc2nccn2c1)n1nnc2ncc(-c3cnn(C)c3)nc21 [SAVOLITINIB] | > 30 µM (inactive) |

Biological target: Tyrosine-protein kinase Lck (Homo sapiens, UniProt P06239)
Sequence (P06239 whole entry): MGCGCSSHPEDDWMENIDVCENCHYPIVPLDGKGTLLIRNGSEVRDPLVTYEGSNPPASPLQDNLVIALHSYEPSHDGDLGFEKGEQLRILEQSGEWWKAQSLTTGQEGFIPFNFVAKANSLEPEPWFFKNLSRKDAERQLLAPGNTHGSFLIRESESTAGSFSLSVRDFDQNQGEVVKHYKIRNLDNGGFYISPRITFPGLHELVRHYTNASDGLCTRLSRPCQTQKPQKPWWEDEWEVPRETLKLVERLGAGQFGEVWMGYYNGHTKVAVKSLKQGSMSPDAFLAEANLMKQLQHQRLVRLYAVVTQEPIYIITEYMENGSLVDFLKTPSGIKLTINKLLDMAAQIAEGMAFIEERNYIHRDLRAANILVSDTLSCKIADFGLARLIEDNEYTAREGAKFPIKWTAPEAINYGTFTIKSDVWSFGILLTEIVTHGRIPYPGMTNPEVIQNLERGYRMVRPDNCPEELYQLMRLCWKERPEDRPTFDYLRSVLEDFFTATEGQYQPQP

| SMILES | Kd |
| --- | --- |
| COc1cc(OC)c(/C=C/S(=O)(=O)Cc2ccc(OC)c(NCC(=O)O)c2)c(OC)c1 [RIGOSERTIB] | > 30 µM (inactive) |
| CNC(=O)CN1CCC(Oc2cc3c(Nc4cccc(Cl)c4F)ncnc3cc2OC)CC1 [SAPITINIB] | > 30 µM (inactive) |
| C[C@@H](c1ccc2nccn2c1)n1nnc2ncc(-c3cnn(C)c3)nc21 [SAVOLITINIB] | > 30 µM (inactive) |

Biological target: Serine/threonine-protein kinase N2 (Homo sapiens, UniProt Q16513)
Sequence (Q16513 whole entry): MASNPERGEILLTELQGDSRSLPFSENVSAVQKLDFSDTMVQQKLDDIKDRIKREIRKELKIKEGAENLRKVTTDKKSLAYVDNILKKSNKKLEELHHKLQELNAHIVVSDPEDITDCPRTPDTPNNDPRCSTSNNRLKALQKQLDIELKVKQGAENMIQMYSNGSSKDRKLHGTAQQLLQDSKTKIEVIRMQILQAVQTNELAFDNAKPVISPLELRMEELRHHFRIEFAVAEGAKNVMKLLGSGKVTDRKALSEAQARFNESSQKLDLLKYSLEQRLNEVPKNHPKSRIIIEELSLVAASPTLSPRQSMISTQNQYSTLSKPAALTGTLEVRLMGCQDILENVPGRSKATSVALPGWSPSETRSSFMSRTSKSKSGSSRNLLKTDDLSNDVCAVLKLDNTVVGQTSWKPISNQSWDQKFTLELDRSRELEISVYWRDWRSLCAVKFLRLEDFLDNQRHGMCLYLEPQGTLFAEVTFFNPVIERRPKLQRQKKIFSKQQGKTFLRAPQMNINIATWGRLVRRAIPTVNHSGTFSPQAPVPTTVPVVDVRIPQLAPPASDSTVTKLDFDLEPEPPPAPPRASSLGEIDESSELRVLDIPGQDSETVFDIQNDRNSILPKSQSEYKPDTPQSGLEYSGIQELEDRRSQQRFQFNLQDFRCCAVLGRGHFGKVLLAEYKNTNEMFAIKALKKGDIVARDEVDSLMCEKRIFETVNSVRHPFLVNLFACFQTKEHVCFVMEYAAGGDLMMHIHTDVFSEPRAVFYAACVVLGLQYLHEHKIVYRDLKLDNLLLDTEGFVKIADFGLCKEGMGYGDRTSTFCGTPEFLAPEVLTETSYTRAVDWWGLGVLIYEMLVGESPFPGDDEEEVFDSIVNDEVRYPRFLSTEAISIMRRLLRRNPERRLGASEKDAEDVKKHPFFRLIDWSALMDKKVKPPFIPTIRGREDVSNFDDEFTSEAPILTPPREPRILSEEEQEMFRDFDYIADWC

| SMILES | Kd |
| --- | --- |
| COc1cc(OC)c(/C=C/S(=O)(=O)Cc2ccc(OC)c(NCC(=O)O)c2)c(OC)c1 [RIGOSERTIB] | > 30 µM (inactive) |
| CNC(=O)CN1CCC(Oc2cc3c(Nc4cccc(Cl)c4F)ncnc3cc2OC)CC1 [SAPITINIB] | > 30 µM (inactive) |
| C[C@@H](c1ccc2nccn2c1)n1nnc2ncc(-c3cnn(C)c3)nc21 [SAVOLITINIB] | > 30 µM (inactive) |

Biological target: T4, Exosome RNA helicase MTR4 (Homo sapiens, UniProt P42285)
T4 sequence (P42285 whole entry): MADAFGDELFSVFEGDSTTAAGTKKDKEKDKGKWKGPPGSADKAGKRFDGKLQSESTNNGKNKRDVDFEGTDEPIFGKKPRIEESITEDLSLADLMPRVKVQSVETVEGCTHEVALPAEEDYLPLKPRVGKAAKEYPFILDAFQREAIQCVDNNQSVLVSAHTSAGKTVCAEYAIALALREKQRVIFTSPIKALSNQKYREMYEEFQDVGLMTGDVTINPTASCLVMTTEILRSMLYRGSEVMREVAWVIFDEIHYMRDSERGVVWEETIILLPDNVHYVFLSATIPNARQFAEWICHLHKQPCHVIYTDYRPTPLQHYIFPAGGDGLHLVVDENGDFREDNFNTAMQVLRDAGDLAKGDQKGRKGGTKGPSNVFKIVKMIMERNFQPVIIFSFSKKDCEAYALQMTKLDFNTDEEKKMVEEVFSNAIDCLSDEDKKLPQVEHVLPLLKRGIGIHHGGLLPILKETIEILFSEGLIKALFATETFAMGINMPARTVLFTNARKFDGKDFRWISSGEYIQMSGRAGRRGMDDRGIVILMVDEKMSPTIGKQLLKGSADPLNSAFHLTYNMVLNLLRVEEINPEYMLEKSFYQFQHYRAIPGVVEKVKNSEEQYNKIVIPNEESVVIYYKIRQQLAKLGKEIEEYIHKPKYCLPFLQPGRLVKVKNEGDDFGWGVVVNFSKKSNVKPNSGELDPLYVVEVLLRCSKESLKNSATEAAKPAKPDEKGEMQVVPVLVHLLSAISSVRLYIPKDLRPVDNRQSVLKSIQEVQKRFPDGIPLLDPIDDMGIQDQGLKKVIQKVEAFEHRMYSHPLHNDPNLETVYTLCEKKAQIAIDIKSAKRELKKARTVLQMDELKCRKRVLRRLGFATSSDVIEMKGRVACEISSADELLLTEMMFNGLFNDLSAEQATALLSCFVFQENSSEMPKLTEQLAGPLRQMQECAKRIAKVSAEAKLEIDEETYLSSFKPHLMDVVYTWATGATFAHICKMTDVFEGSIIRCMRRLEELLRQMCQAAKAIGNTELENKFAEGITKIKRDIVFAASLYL

| SMILES | Kd |
| --- | --- |
| COc1cc(OC)c(/C=C/S(=O)(=O)Cc2ccc(OC)c(NCC(=O)O)c2)c(OC)c1 [RIGOSERTIB] | > 30 µM (inactive) |
| CNC(=O)CN1CCC(Oc2cc3c(Nc4cccc(Cl)c4F)ncnc3cc2OC)CC1 [SAPITINIB] | > 30 µM (inactive) |
| C[C@@H](c1ccc2nccn2c1)n1nnc2ncc(-c3cnn(C)c3)nc21 [SAVOLITINIB] | > 30 µM (inactive) |
